From patent publication US20070037833A1, “Compositions and methods for inhibiting neurodegeneration” (priority 2005, published 2007)
Several values for one entry are separate records, joined by “and”; a condition that tells them apart may be missing. Equal values may be shown once. Entries after “also recorded” stand apart in the source; their conditions may differ.

Experiments:
[1] = test system: motor neurons in embryonic rat spinal cord cultures; test: Excitotoxicity assay (100 μM kainic acid) in mixed spinal cord cultures; type: cell-based
Method: Unless otherwise specified, BDNF was added to all cultures.
Many previous in vitro investigations have identified motor neurons in mixed spinal cord cell culture by immunostaining for non-phosphorylated neurofilaments (or peripherin) and restricting analysis to cells with a soma diameter of 25 μm or greater (Carriedo et al., 2000; Hu and Kalb, 2003). We wanted to confirm the validity of this approach using an independent method for determining whether a given cell is a motor neuron. To specifically identify motor neurons in our cultures we purified these cells by metrizamide gradient and immunopanning techniques (Henderson et al., 1993; Fryer et al., 1999), live-labeled them with CM-DiI, and added these fluorescently-tagged, bona fide motor neurons to mixed cell cultures at the time of initial plating. All CM-DiI labeled cells stained for motor neurons markers such as non-phosphorylated neurofilament H (using antibody, SMI-32), peripherin, choline acetyl transferase (ChAT) and islet ½ (FIG. 1, panel a.). We then subjected spinal cord cultures to an excitotoxic insult and determined motor neuron survival using multiple methods for identifying motor neurons. […] Since all SMI-32 (+) cells with cell body diameter of 25 μm or greater were CM-DiI (+) and all CM-DiI (+) cells were SMI-32 (+), for the remainder of the studies herein, we could confidently study motor neuron death in vitro by counting SMI-32 (+) cells with a cell body diameter of 25 μm or greater.

Trk = test: Immunoblot for phosphoTrk in spinal cord cultures; type: cell-based, rat
Method: (§1) Cells were lysed in 1% NP-40 lysis buffers containing protease inhibitors, subjected to SDS-PAGE and immunoblotted as previously described (Fryer et al., 1999; Fryer et al., 2000). For immunoprecipitation, lysates from 60 mm dishes were pre-cleared by incubation with protein A beads (Santa Cruz), incubated with primary antibody (4 μg/ml)×2 hours then 50 μL of beads added and incubated overnight with gentle agitation at 4° C. Beads were pelleted, washed 5× with 10 mM Tris pH 7.4+0.5 mM EGTA+0.5 mM EDTA+0.1% NP40 before elution in 1× Laemelli sample buffer. Antibody sources: BD Transduction Labs—TrkB and MAP Kinase used at 1:500, Cell Signaling—Akt 1:1000; phosphoTrk (tyr490) 1:1000; phospho p42/44 MAP Kinase (thr 202/tyr204) 1:1000; phosphoAkt (ser473) 1:500; IGFI antibody (tyr 1131) 1:500. Upstate—adenosine A2a 1:1000. Sigma—actin 1:200. Biosource—active src (clone 28) 1:200.
(§2) We next asked about the effect of the adenosine A2 receptor antagonism on Trk signaling. Cultures of spinal cord cells (grown in the presence of a cocktail of trophic factors including 10 ng/ml BDNF) received KW6002 (1 μM), MRS1754 (50 nM) or vehicle (DMSO 0.1%) and 24 hrs. later, lysates were prepared for immunoblots for Trk and the MAP kinase downstream signaling module (FIG. 2, panel a). Immunoblots for phosphoTrk and phosphoMAPK were employed to monitor the state of activation of these proteins.
(§3) We followed up these observations by determining the effect of enprofylline on Trk signaling and determined the extent to which the resultant biochemical changes mimic the effects of direct pharmacological Trk antagonism with CEP4416. […] The effect of drug treatment on AKT was particularly marked. […] To determine the specificity of these agents, we examined their effect on Insulin-like growth factor 1 (IGF1) signaling through the IGF receptor tyrosine kinase (IGFR). […] It is unlikely that phosphodiesterase activity of enprofylline can explain these observations as increased cAMP levels enhance, not suppress, TrkB activation (Boulanger and Poo, 1999; Ji et al., 2005).

MAP kinase = test: Immunoblot for phosphoMAPK in spinal cord cultures; type: cell-based, rat
Method: as §1, §2, §3

[2] = test system: IGF receptor tyrosine kinase (IGFR); test: Immunoblot for phospho-IGFR in spinal cord cultures; type: cell-based, rat
Method: as §1, §3

[3] = test system: motor neurons expressing G85R SOD; test: Motor neuron death from HSV-expressed mutant SOD in spinal cord cultures; type: cell-based, rat; settings: 6 days post-infection; treatment daily or every other day
Description: (§4) Various cDNAs were cloned into the PrpUC amplicon plasmid and were used to generate recombinant HSV as previously described (Neve et al., 1997). The titer of viruses used in these studies were routinely 3-5×10^7 plaque-forming units/ml. The cDNA for wild type/mutant SOD and wild type/mutant p150^glued were gifts of D. Borchelt and E. Holzbaur, respectively. The K295R mutant version of chick src was a gift of J. Brugge.
(§5) Mutations in superoxide dismutase (SOD) or the p150^glued subunit of dynactin are known to account for a familial form of ALS in a subpopulation of individuals (Rosen, 1993; Puls et al., 2003; Bruijn et al., 2004). We inquired whether expression the mutant forms of SOD or p150^glued caused motor neuron death in vitro and if Trk antagonism was neuroprotective. Recombinant herpes simplex viruses (HSVs) were generated that expressed wild type or mutant form of SOD (G85R) and wild type or mutant p150^glued (G59S). […] Spinal cord cultures were infected with virus at 14 DIV and the number of motor neurons was determined 2, 4, 6 or 8 days later (FIG. 4, panel a.).
(§6) We next determined if KW6002 could protect motor neurons from the toxic effects of mutant proteins. Spinal cord cultures were infected with viruses expressing wild type or mutant versions of SOD or p150^glued at 14 DIV, then treated with drug or vehicle for 4 days (FIG. 4, panel b.). […]

[4] = test system: motor neurons expressing G59S p150^glued; test: Motor neuron death from HSV-expressed mutant p150glued in spinal cord cultures; type: cell-based, rat; settings: 6 days post-infection; treatment daily or every other day
Description: as §4, §5, §6

[5] = Robeva et al.; cited from earlier work
[6] = 6 hours post drug administration
[7] = 48 hours post drug administration

For CCCn1c(=O)[nH]c(=O)c2[nH]cnc21 [enprofylline, 3-propylxanthine], the “% motor neuron death, short term (acute) treatment” value ([1]; drug added 30 minutes prior to excitotoxic challenge, counted 24 hours later) was ~40% and 46±4%, the “excitotoxic motor neuron death” value ([1]; drug for 4 days (added 4 and 2 days) prior to 100 μM kainic acid 1 h, SMI-32(+) motor neurons counted 24 h later) was “completely blocked the loss of SMI(+) neurons; also recorded: no excitotoxic motor neuron death” and the “abundance of phosphoTrk” value (Trk; 6, 24 or 48 hours, 100 μM enprofylline, 30 nM CEP-4416) was “decrease in the abundance of phosphoTrk at all time points”. The “phosphorylation of Trk” value (Trk; [6]) was “decreases in the phosphorylation of Trk, MAP kinase and Akt”, the “abundance of phosphoTrk” value (Trk; 24 hours treatment) was “robust reduction in phosphoTrk, phosphoMAPK and phosphoAKT” and the “abundance of phosphoTrk” value (Trk; [7]) was “decrease in phosphoTrk could still be detected”. For the same compound, the “abundance of phosphoMAPK” value (MAP kinase; 6 and 24 hours, 100 μM enprofylline, 30 nM CEP-4416) was “decrease in the abundance of phosphoAKT and phosphoMAPK at 6 and 24 hours”, the “phosphorylation of MAP kinase” value (MAP kinase; [6]) was “decreases in the phosphorylation of Trk, MAP kinase and Akt” and the “abundance of phosphoMAPK” value (MAP kinase; 24 hours treatment) was “robust reduction in phosphoTrk, phosphoMAPK and phosphoAKT”. For the same compound, the “phosphorylation of MAPK” value (MAP kinase; [7]) was “largely returned to baseline”, the “IGF1-induced IGFR phosphorylation” value ([2]; 24 hour pretreatment, then acute IGF1) was “neither CEP-4416 nor enprofylline blunted the acute response; also recorded: undiminished by 24 hour pretreatment” and the “basal state of IGFR phosphorylation” value ([2]; 24 hour treatment) was “Neither drug led to an alteration in the abundance in the phosphorylated species; also recorded: had no effect on the basal state of IGFR phosphorylation”. For the same compound, the “motor neuron survival / toxicity of G85R SOD” value [3] was “significantly greater number of motor neurons; also recorded: completely prevented the toxicity of mutant protein expression”, the “motor neuron survival / toxicity of G59S p150glued” value [4] was “significantly greater number of motor neurons; also recorded: completely prevented the toxicity of mutant protein expression” and the bioavailability [5] was “good”.
